According to patent US8304440B2, “Combination of a bis-thiazolium salt or a precursor thereof and artemisinin or a derivative thereof for treating acute malaria” (Sanofi, priority 2008, dated 2012):

Tested on: Plasmodium vinckei petteri (strain 279 BY)
Experiment: In vivo measurement of the antimalarial activity in mice infected with Plasmodium vinckei petteri (4-day ip treatment)
Set-up: species or system Plasmodium vinckei petteri in female Swiss mice
From the text: • ED50=dose in mg/kg/day which brings about a 50% decrease in parasitaemia, observed in the infected mice, • ED90=dose in mg/kg/day which brings about a 90% decrease in parasitaemia, observed in the infected mice, • ip=intraperitoneal administration, • iv=intravenous administration, • ir=intrarectal administration.
On day 0 (D0), female “Swiss” mice (OF1, 22-26 g) (Charles River Laboratories France, 59 rue de la Paix, 76410 Saint-Aubin-les-Elbeuf) are inoculated, by iv injection in the caudal vein, with 10^8 parasitized erythrocytes suspended in 200 μl of NaCl (0.9%). The parasites used are of Plasmodium vinckei petteri type (strain 279 BY, supplied by Dr. I Landau, Paris, France).
The injection of 10^8 parasitized erythrocytes results, at day 1 (D1), in a parasitemia level of between 5% and 10% (7.2%±0.2%). The Plasmodium vinckei petteri strain is maintained by weekly infection in mice with 10^7 to 10^8 parasitized erythrocytes suspended in a saline phosphate buffer (0.9%) (infection by intraperitoneal administration).
The products are dissolved in a 0.3M phosphate buffer (pH=8.1). The final concentration of the T3 solution is between 40 and 200 mg/l depending on the dose. The final concentration of the artesunate solution is between 100 and 500 mg/l depending on the dose. The products are administered ip. The administration volume is of the order of 100 μl, but depends on the weight of the mouse.
The mice are treated once a day for 4 days, on days D1, D2, D3 and D4 (Peters, W., J. H. Portus, and B. L. Robinson. 1975. The chemotherapy of rodent malaria. XXII. The value of drug-resistant strains of P. berghei in screening for blood schizonticidal activity. Ann. Trop. Med. Parasitol. 69:155-171; and: Ancelin M L, Calas M., Bonhoure A., Herbute S, and Vial H., In vivo antimalarial activity of mono and bis quaternary ammonium salts interfering with Plasmodium phospholipid metabolism. Antimicrob. Agents Chemother., 2003, 47, 2598-2605). Four mice are used per dose.
The animal is given, by ip administration, according to the case, T3, artesunate or the mixture of the two active ingredients solubilized.
At the 5th day, a few drops of blood are taken from the tail of the mouse in order to determine the parasitemia by FACS (fluorescence-activated cell sorter) and to perform a blood smear. The parasitemia is first determined by FACS on 20 000 cells. The red blood cells taken for the FACS are fixed with glutaraldehyde and then labeled with a fluorochrome (YOYO1®) which labels DNA and therefore only the parasitized cells (Barkan, D., Ginsburg, H., and Golenser, J. 2000. Optimisation of flow cytometric measurement of parasitaemia in plasmodium-infected mice. Int. J. Parasitol. 30: 649-653). The parasitemias below 15% are subsequently recounted on smears. The smears are fixed with methanol and then stained with Giemsa stain. The number of parasitized blood cells is counted under a microscope. The parasitemia is expressed as percentage of infected erythrocytes present in the specimen, on a sample of 2000 cells. The ED50 and ED90 values are determined at D5. The parasitemia is determined from the 1st to the 10th day of treatment, and then at the 15th, 22nd and 47th days.
The curative dose is the dose of product which ensures the survival of the entire treated batch of animals after one month.
0% inhibition corresponds to the mean of the parasitemias observed in the nontreated, infected mice. 100% inhibition corresponds to a very weak or null parasitemia, below 0.01%. The ED50 values are determined by linear interpolation of the dose-response curve represented in logarithm of concentrations.

Structure (SMILES): C[C@H]1[C@H](OC(=O)CCC(=O)O)O[C@@H]2O[C@@]3(C)CC[C@H]4[C@H](C)CC[C@@H]1[C@@]24OO3 [artesunate, reference compound]
- parasitaemia D5 (Artesunate 2.5 mg/kg/d alone, ip D1-D4, D5): 53.20%
- parasitaemia D1 (Artesunate 2.5 mg/kg/d alone, ip, D1 (first treatment day)): 7.00%
- parasitaemia D2 (Artesunate 2.5 mg/kg/d alone, ip, D2 (24 h after first administration)): 32.90%
- activity on the parasitemia at 4 days (artesunate 0.5 mg/kg/d): completely inactive
- complete recovery after one month (artesunate alone 2.5 mg/kg/day): does not
- effect on parasitemia on the first day and following days (artesunate alone, at the doses tested, ip (FIG. 1)): does not reduce the parasitemia
- ED50 (dose giving 50% decrease in parasitaemia, ip once a day D1-D4, determined at D5, compound alone): >2.5 mg/kg/day
